Laboratory results as given in ChEMBL document CHEMBL4732160, “Design and synthesis of 7-O-1,2,3-triazole hesperetin derivatives to relieve inflammation of acute liver injury in mice” (Eur J Med Chem, 2021).
The source made the active and inactive calls. The calls are words filed in the database; no cut-off is given here.

What was measured:
[1] = system: RAW264.7; assay: Antiinflammatory activity in mouse RAW264.7 cells assessed as inhibition of LPS-induced NO production preincubated for 2 hrs followed by LPS stimulation and measured after 24 hrs by Griess method; type: functional, cell-based
[2] = Cytotoxicity against mouse RAW264.7 cells assessed as cell viability at 40 uM measured after 24 hrs by MTT assay relative to control; type: cell-based
[3] = system: RAW264.7; assay: Antiinflammatory activity in mouse RAW264.7 cells assessed as inhibition of LPS-induced TNFalpha production at 10 uM preincubated for 1 hr followed by LPS stimulation and measured after 22 hrs by ELISA; type: functional, cell-based; settings: time 23.0 hrs
[4] = system: RAW264.7; assay: Antiinflammatory activity in mouse RAW264.7 cells assessed as inhibition of LPS-induced IL1beta production at 10 uM preincubated for 1 hr followed by LPS stimulation and measured after 22 hrs by ELISA; type: functional, cell-based; settings: time 23.0 hrs
[5] = system: RAW264.7; assay: Antiinflammatory activity in mouse RAW264.7 cells assessed as inhibition of LPS-induced IL6 production at 10 uM preincubated for 1 hr followed by LPS stimulation and measured after 22 hrs by ELISA; type: functional, cell-based; settings: time 23.0 hrs
[6] = system: RAW264.7; assay: Antiinflammatory activity in mouse RAW264.7 cells assessed as inhibition of LPS-induced NO production at 10 uM preincubated for 2 hrs followed by LPS stimulation and measured after 24 hrs by Griess method relative to control; type: functional; settings: time 26 hrs

| SMILES | IC50 [1] [µM] | viability at 24 h, 40 µM [2] [%] | inhibition [3] | inhibition [4] | inhibition [5] | inhibition at 10 µM [6] [%] |
| --- | --- | --- | --- | --- | --- | --- |
| COc1ccc([C@@H]2CC(=O)c3c(O)cc(OCc4cn(CC5CC5)nn4)cc3O2)cc1O | 11.9 | 87 | Active | Active | Active | 48.8 |
| COc1ccc([C@@H]2CC(=O)c3c(O)cc(OCc4cn(CC(=O)c5ccccc5OC)nn4)cc3O2)cc1O | 18.9 | 132 | Active | Active | Active | 22.8 |
| COc1ccc([C@@H]2CC(=O)c3c(O)cc(OCc4cn(C5CCC5)nn4)cc3O2)cc1O | 15.3 | 111 | Active | Active | Active | 44.2 |
| COc1ccc([C@@H]2CC(=O)c3c(O)cc(OCc4cn(Cc5ccc(C(F)(F)F)cc5)nn4)cc3O2)cc1O | 17.7 | 66 | Active | Active | Active | 36.4 |
| CCCCn1cc(COc2cc(O)c3c(c2)O[C@H](c2ccc(OC)c(O)c2)CC3=O)nn1 | 13.9 | 118 | Active | Active | Active | 49.9 |
| COc1ccc([C@@H]2CC(=O)c3c(O)cc(O)cc3O2)cc1O [HESPERETIN] | 48.6 | 121 | Active | Active | Active | 18.4 |
| COc1ccc([C@@H]2CC(=O)c3c(O)cc(OCc4cn(CC(=O)c5ccccc5Cl)nn4)cc3O2)cc1O | 13.2 | 99 | Active | Active | Active | 34.1 |
| COc1ccc([C@@H]2C/C(=N\O)c3c(O)cc(OCc4cn(Cc5ccccc5Cl)nn4)cc3O2)cc1O | 13.3 | 86 | Active | Active | Active | 33 |
| COc1ccc([C@@H]2CC(=O)c3c(O)cc(OCc4cn(CC(=O)c5ccccc5F)nn4)cc3O2)cc1O | 18.9 | 113 | Active | Active | Active | 34.5 |

Stronger by IC50 [1], values ahead:

| IC50 [1] [µM] | SMILES | viability at 24 h, 40 µM [2] [%] | inhibition [3] | inhibition [4] | inhibition [5] | inhibition at 10 µM [6] [%] |
| --- | --- | --- | --- | --- | --- | --- |
| 9.67 | CCCn1cc(COc2cc(O)c3c(c2)O[C@H](c2ccc(OC)c(O)c2)CC3=O)nn1 | 114 | Active | Active | Active | 56.4 |
| 8.9 | CCCCn1cc(COc2cc(O)c3c(c2)O[C@H](c2ccc(OC)c(O)c2)C/C3=N\O)nn1 | 62 | Active | Active | Active | 56.9 |
| 6.88 | COc1ccc([C@@H]2C/C(=N\O)c3c(O)cc(OCc4cn(C5CCCC5)nn4)cc3O2)cc1O | 112 | Active | Active | Active | 63.7 |
| 6.14 | COc1ccc([C@@H]2CC(=O)c3c(O)cc(OCc4cn(Cc5ccccc5Cl)nn4)cc3O2)cc1O | 83 | Active | Active | Active | 63.1 |
| 3.14 | CCn1cc(COc2cc(O)c3c(c2)O[C@H](c2ccc(OC)c(O)c2)C/C3=N\O)nn1 | 101 | Active | Active | Active | 65.1 |
